Data as given in publication PMC8170916, “Sublingual AKBA Exerts Antidepressant Effects in the Aβ-Treated Mouse Model” (Biomolecules, 2021).

Tests used:
Type in all cases: in vivo
kynurenine (KYN) = assay: Kynurenine quantification in PFC and HIPP by HPLC with electrochemical detection; conditions: mice 7 days after icv Aβ 4 µM, sublingual AKBA 5 mg/kg 30 min earlier
Procedure: (§1) All behavioral experiments were conducted at 5 or 30 min after sublingual administrations of AKBA or vehicle in either SHAM or Aβ-treated mice. Based upon behavioral outcomes observed, neurochemical and biochemical quantifications were performed 30 min after AKBA or vehicle administration in either SHAM or Aβ-treated mice.
(§2) Anesthetized animals were sacrificed by cervical dislocation. Brains were immediately removed and kept on ice for dissection of PFC and HIPP, according to the atlas of Paxinos and Franklin. Tissues were frozen and stored at −80 °C until analyses were carried out. Samples (PFC and HIPP) were homogenized (1:10 w/v) at 4 °C using a PBS buffer containing a 1:100 protease and phosphatase inhibitor cocktail (HALT inhibitors, Thermo Fisher Scientific, Cleveland, OH, USA) for biochemical analyses or perchloric acid 0.1 M for neurochemical analyses. Homogenates were centrifuged at 13,000× g at 4 °C for 20 min, and supernatants were used for further determinations.
5-HT, noradrenaline (NA), and KYN levels were measured in the PFC and HIPP of mice by HPLC coupled with an electrochemical detector (Ultimate ECD, Thermo Scientific Dionex, Milan, Italy) as already reported. Separation was performed by a LC18 reverse phase column (Kinetex, 150 mm × 3.0 mm, ODS 5 μm; Phenomenex, Castel Maggiore-Bologna, Italy). The detection was accomplished by a thin layer amperometric cell (Thermo Scientific Dionex, Milan, Italy) with a 5 mm diameter glassy carbon electrode at a working potential of 400 mV (5-HT and NA) or 0.750 mV (KYN) vs. Pd. The mobile phase consisted of an aqueous buffer containing 75 mM NaH2PO4, 1.7 mM octane sulfonic acid, 0.3 mM EDTA, and acetonitrile 10%, buffered at pH 3.0. The flow rate was kept at 0.7 mL·min-1 by an isocratic pump (Shimadzu LC-10 AD, Kyoto, Japan). Data acquisition and integration were performed by using Chromeleon software (version 6.80, Thermo Scientific Dionex, Milan, Italy). GLU concentrations were determined by HPLC coupled with fluorescence detection (emission length 460 nm; excitation length 340 nm), as previously published. Analyses were carried out using an LC18 reverse phase column (Kinetex, 150 mm × 3.0 mm, ODS 5 μm; Phenomenex, Castel Maggiore, Bologna, Italy) and detection was accomplished by pre-column derivatization with ophthalaldehyde/mercaptopropionic acid. The mobile phase consisted of a 50 mM sodium acetate buffer, at pH 6.95, with gradient methanol increasing linearly from 2 to 30% (v/v) over a 40 min run. […] Results were analyzed by Borwin software (version 1.50; Jasco, Cremella, Italy) and the amino acid concentration was expressed as µM. All data were normalized for total area weight and were expressed as concentration/mg of tissue.

GFAP = assay: Western blotting quantification of GFAP in PFC and HIPP; conditions: mice 7 days after icv Aβ 4 µM, sublingual AKBA 5 mg/kg 30 min earlier
Procedure: as §1, §2
(§3) The total amount of proteins was measured in homogenates by using Pierce BCA Assay (Thermo Fisher Scientific, Cleveland, OH, USA). Forty µg of the total lysate protein were separated by SDS-PAGE precast gels (Bio-Rad Laboratories Inc., Segrate (MI), Italy), transferred onto nitrocellulose membranes (Bio-Rad Laboratories Inc, Segrate (MI), Italy) and then blocked for 1 h in blocking buffer (SigmaAldrich, Milan, Italy). Rabbit polyclonal antibody against GFAP (Dako Products, USA; 1:2000), rabbit monoclonal antibody against CD11b (Abcam, Cambridge, MA, USA; ab133357, 1:1000) and mouse monoclonal antibody against NF-kB p65 (Santa Cruz Biotechnology, Dallas, Texas, USA; 1:2000) were used to incubate the membranes overnight at 4 °C. After HRP-conjugated specific antibody incubation, ECL reagent (Bio-Rad Laboratories Inc., Segrate (MI), Italy) was added to the immune complex and chemiluminescence was detected by ChemiDoc MP system (Bio-Rad Laboratories Inc., Segrate (MI), Italy). Optical densities of the bands were measured using ImageJ software (http://rsb.info.nih.gov/ij/ accessed on 15 March 2021) and normalized against bands relative to β-actin (1:5000, Abcam, Cambridge, UK).

glutamate (GLU) = assay: Glutamate quantification in PFC and HIPP by HPLC with fluorescence detection; conditions: PFC, mice 7 days after icv Aβ 4 µM; sublingual AKBA 5 mg/kg 30 min earlier
Procedure: as §1, §2
5-HT, noradrenaline (NA), and KYN levels were measured in the PFC and HIPP of mice by HPLC coupled with an electrochemical detector (Ultimate ECD, Thermo Scientific Dionex, Milan, Italy) as already reported. Separation was performed by a LC18 reverse phase column (Kinetex, 150 mm × 3.0 mm, ODS 5 μm; Phenomenex, Castel Maggiore-Bologna, Italy). The detection was accomplished by a thin layer amperometric cell (Thermo Scientific Dionex, Milan, Italy) with a 5 mm diameter glassy carbon electrode at a working potential of 400 mV (5-HT and NA) or 0.750 mV (KYN) vs. Pd. The mobile phase consisted of an aqueous buffer containing 75 mM NaH2PO4, 1.7 mM octane sulfonic acid, 0.3 mM EDTA, and acetonitrile 10%, buffered at pH 3.0. […] GLU concentrations were determined by HPLC coupled with fluorescence detection (emission length 460 nm; excitation length 340 nm), as previously published. […] Results were analyzed by Borwin software (version 1.50; Jasco, Cremella, Italy) and the amino acid concentration was expressed as µM. All data were normalized for total area weight and were expressed as concentration/mg of tissue.

NF-kB p65 = assay: Western blotting quantification of NF-kB p65 in PFC and HIPP; conditions: mice 7 days after icv Aβ 4 µM, sublingual AKBA 5 mg/kg 30 min earlier
Procedure: as §1, §2, §3

CD11b = assay: Western blotting quantification of CD11b in PFC and HIPP; conditions: mice 7 days after icv Aβ 4 µM, sublingual AKBA 5 mg/kg 30 min earlier
Procedure: as §1, §2, §3

CC(=O)O[C@@H]1CC[C@@]2(C)[C@@H](CC[C@]3(C)[C@@H]2C(=O)C=C2[C@@H]4[C@@H](C)[C@H](C)CC[C@]4(C)CC[C@]23C)[C@@]1(C)C(=O)O [AKBA, 3-O-acetyl-11-keto-β-boswellic acid]
KYN levels in the HIPP (kynurenine (KYN); HIPP): prevented the increase in KYN levels | KYN levels in the PFC (kynurenine (KYN); PFC): prevented such an increase | GFAP levels in the HIPP (optical density normalized to actin) (GFAP; HIPP): restored those levels back to control | GFAP levels in the PFC (optical density normalized to actin) (GFAP; PFC): prevented such an increase | GLU levels in the PFC (glutamate (GLU)): restored those levels to control | NF-kB p65 content in the HIPP (optical density normalized to actin) (NF-kB p65; HIPP): prevented such an increase | NF-kB p65 levels in the PFC (optical density normalized to actin) (NF-kB p65; PFC): prevented such an increase | CD11b levels in the HIPP (optical density normalized to actin) (CD11b; HIPP): not able to modify such an outcome | CD11b content in the PFC (optical density normalized to actin) (CD11b; PFC): no differences were found among experimental groups
